Details: female, Sprague-Dawley, rat, in vivo

Total Net Bone Absorbed: 770
SMILES: NCCCC(O)(P(=O)(O)O)P(=O)(O)O [Alendronate Calcium, alendronate calcium]

Reference: patent publication US8974801B2, “Long term sustained release pharmaceutical composition containing aqueous suspension of bisphosphonate” (priority 2006, dated 2015)
